From the NIST ThermoML archive (doi:10.1016/j.jct.2010.04.015)
± gives the expanded uncertainty stated by the source.

Conditions: Liquid, Closed cell (Static) method

| vapor or sublimation pressure (293.29 K) | vapor or sublimation pressure (303.35 K) | vapor or sublimation pressure (313.24 K) | vapor or sublimation pressure (323.25 K) | vapor or sublimation pressure (332.57 K) | vapor or sublimation pressure (343.18 K) | vapor or sublimation pressure (353.17 K) | vapor or sublimation pressure (363.1 K) | vapor or sublimation pressure (373 K) | vapor or sublimation pressure (283.15 K) | vapor or sublimation pressure (293.14 K) | vapor or sublimation pressure (303.09 K) | vapor or sublimation pressure (313.08 K) | vapor or sublimation pressure (323.28 K) | vapor or sublimation pressure (333.12 K) | vapor or sublimation pressure (343.12 K) | vapor or sublimation pressure (363.17 K) | vapor or sublimation pressure (373.1 K) | SMILES |
| --- | --- | --- | --- | --- | --- | --- | --- | --- | --- | --- | --- | --- | --- | --- | --- | --- | --- | --- |
| 0.0415 ± 0.001 kPa | 0.0975 ± 0.0019 kPa | 0.2191 ± 0.0028 kPa | 0.4556 ± 0.0048 kPa | 0.8745 ± 0.0082 kPa | 1.659 ± 0.011 kPa | 2.933 ± 0.014 kPa | 4.987 ± 0.019 kPa | 8.142 ± 0.025 kPa |  |  |  |  |  |  |  |  |  | CC(C)(N)CO [2-amino-2-methylpropan-1-ol] |
|  |  |  |  |  |  |  |  |  | 0.007 ± 0.0003 kPa | 0.016 ± 0.0006 kPa | 0.0346 ± 0.0009 kPa | 0.0707 ± 0.0014 kPa | 0.1418 ± 0.0021 kPa | 0.2604 ± 0.0031 kPa | 0.4742 ± 0.005 kPa | 1.419 ± 0.01 kPa | 2.315 ± 0.012 kPa | CN(C)CCCO [3-dimethylamino-1-propanol] |
